Experimental findings from patent publication US20210347727A1 (BLADE THERAPEUTICS, INC., priority 2017, published 2021) are described below.

The target of one experiment is T1, Human Calpain 1/NS1 (Homo sapiens, UniProt P07384).
T1 sequence (P07384 1-714): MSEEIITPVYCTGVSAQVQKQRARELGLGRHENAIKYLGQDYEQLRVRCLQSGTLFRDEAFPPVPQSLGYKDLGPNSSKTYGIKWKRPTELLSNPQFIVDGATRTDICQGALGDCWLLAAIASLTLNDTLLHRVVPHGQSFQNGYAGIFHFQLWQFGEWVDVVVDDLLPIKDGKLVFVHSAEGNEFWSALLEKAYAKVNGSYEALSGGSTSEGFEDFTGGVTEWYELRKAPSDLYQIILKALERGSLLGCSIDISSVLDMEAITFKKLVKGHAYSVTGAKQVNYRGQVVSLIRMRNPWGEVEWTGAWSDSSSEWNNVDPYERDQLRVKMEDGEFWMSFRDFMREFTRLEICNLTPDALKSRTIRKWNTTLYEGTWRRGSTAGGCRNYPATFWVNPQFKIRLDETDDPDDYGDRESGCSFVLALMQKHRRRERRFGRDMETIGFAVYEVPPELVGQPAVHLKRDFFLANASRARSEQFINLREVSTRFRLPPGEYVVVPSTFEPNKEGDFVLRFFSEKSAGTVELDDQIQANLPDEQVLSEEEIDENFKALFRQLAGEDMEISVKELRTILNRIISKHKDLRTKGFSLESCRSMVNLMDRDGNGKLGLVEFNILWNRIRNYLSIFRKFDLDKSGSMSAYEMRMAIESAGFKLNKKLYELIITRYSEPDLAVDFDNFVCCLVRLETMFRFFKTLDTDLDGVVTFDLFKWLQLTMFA
T1 sequence (P04632 1-268 partner): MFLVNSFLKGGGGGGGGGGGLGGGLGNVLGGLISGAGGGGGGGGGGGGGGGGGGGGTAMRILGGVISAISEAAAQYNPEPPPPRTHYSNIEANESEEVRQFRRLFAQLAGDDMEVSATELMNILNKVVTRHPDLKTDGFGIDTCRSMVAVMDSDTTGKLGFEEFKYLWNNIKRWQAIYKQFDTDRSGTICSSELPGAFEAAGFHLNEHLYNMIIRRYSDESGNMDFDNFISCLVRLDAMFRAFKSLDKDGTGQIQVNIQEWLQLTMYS
The experiment in a line: Biochemical inhibition of calpain 1, continuous fluorescence (FRET substrate) assay. Particulars: mean; read-out: Human Calpain 1/NS1 IC50 (nM)_MEAN. In a few lines: (§1)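 Calpains preincubated with inhibitor at 25 °C in 50 mM Tris pH 7.5, 100 mM NaCl, 1 mM DTT; reaction started with 5-FAM/QXL520 FRET peptide plus CaCl2 for activation. Fluorescence (ex 490/em 520 nm) followed 10 min; rates from 1–5 min slopes, IC50 by 4-parameter logistic fit.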

A further experiment has as its target T2, Human Calpain 2/NS1 (Homo sapiens, UniProt P17655).
T2 sequence (P17655 1-700): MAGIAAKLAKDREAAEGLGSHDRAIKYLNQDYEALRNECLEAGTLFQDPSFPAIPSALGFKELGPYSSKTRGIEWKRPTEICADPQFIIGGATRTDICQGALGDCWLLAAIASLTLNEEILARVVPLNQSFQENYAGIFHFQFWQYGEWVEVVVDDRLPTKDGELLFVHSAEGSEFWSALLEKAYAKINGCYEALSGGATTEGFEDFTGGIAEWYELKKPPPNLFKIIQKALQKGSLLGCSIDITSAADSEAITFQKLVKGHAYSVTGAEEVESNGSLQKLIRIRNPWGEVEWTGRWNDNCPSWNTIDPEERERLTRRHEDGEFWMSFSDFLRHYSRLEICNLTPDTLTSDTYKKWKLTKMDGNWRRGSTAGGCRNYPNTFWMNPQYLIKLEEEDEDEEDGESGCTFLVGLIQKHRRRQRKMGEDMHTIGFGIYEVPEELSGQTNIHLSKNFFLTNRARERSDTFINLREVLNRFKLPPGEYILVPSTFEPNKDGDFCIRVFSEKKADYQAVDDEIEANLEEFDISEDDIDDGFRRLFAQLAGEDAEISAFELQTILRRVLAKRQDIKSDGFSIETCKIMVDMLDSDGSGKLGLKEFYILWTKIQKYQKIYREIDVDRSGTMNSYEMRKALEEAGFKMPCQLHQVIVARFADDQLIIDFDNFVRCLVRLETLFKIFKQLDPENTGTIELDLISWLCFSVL
T2 sequence (P04632 1-268 partner): T1 sequence (P04632 1-268 partner)
The experiment in a line: Biochemical inhibition of calpain 2, continuous fluorescence (FRET substrate) assay. Particulars: mean; read-out: Human Calpain 2/NS1 1C50 [sic] (nM)_MEAN. In a few lines:
as §1

The target in another experiment is T3, Human Calpain 9/NS1 (Homo sapiens, UniProt O14815).
T3 sequence (O14815 1-690): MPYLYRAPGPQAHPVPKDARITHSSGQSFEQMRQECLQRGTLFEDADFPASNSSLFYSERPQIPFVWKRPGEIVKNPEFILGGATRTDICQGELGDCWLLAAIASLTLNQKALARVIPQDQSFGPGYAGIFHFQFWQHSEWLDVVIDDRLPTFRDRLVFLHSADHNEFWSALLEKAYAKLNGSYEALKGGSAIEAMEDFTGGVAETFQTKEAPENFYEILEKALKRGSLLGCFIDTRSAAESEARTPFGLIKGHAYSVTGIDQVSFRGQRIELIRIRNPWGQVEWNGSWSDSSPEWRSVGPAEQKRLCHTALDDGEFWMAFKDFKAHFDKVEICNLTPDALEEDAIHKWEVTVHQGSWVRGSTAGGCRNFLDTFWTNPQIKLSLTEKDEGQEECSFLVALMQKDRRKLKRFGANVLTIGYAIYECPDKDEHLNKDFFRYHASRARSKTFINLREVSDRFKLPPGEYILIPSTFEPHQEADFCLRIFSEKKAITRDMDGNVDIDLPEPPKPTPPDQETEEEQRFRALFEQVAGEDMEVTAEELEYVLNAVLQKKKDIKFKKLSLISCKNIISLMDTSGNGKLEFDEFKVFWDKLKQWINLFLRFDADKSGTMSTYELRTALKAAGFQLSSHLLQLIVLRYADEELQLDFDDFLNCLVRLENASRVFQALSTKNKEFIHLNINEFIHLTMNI
T3 sequence (P04632 1-268 partner): T1 sequence (P04632 1-268 partner)
The experiment in a line: Biochemical inhibition of calpain 9, continuous fluorescence (FRET substrate) assay. The conditions noted are these: mean; read-out: Human Calpain 9/NS1 IC50 (nM)_MEAN. In a few lines: as §1

The test system of experiment [1] is calpain activity in SH-SY5Y cells (Spectrin). The experiment can be described thus: SH-SY5Y Spectrin cellular calpain inhibition. The class given is cell-based.
In experiment [2] the test system is calpain activity in SH-SY5Y cells. The experiment can be described thus: SH-SY5Y cellular calpain activity, Suc-LLVY-AMC fluorescence assay. The format is cell-based. The conditions noted are these: Suc-LLVY-AMC substrate. A digest of the protocol:
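SH-SY5Y cells (1% serum, seeded overnight at 37 C) pre-incubated 30 min with serially diluted compound, then given 100 uM cell-permeable Suc-LLVY-AMC. AMC fluorescence followed continuously on FLIPR; slopes taken as calpain activity, and IC50 from 4-parameter logistic fit of slope versus log concentration.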

Some results are limits rather than exact numbers.

For `NC(=O)C(=O)[C@H](Cc1ccccc1)NC(=O)c1cc(Cl)ccc1Cl` [Compound 22, (S)—N-(4-AMINO-3,4-DIOXO-1-PHENYLBUTAN-2-YL)-2,5-DICHLOROBENZAMIDE], the IC50 was under 3000 nM on Human Calpain 1/NS1; under 3000 nM on Human Calpain 2/NS1; under 3000 nM at Human Calpain 9/NS1; 10 to 25 µM in experiment [1]; under 10 µM in experiment [2].

On to `Cn1c2ccccc2c2c(C(=O)NC(Cc3ccccc3)C(=O)C(N)=O)cccc21` (stereo not shown) [Compound 11, N-(4-AMINO-3,4-DIOXO-1-PHENYLBUTAN-2-YL)-9-METHYL-9H-CARBAZOLE-4-CARBOXAMIDE], for which the IC50 at Human Calpain 1/NS1 was under 3000 nM; at Human Calpain 2/NS1 it was under 3000 nM; on Human Calpain 9/NS1, under 3000 nM; in experiment [1], 10 to 25 µM; in experiment [2], under 10 µM.

In the case of `COc1ccc(Br)cc1C(=O)N[C@@H](Cc1ccccc1)C(=O)C(N)=O` [Compound 35, (S)—N-(4-AMINO-3,4-DIOXO-1-PHENYLBUTAN-2-YL)-5-BROMO-2-METHOXYBENZAMIDE], the IC50 is under 3000 nM on Human Calpain 1/NS1; under 3000 nM at Human Calpain 2/NS1; under 3000 nM at Human Calpain 9/NS1; 10 to 25 µM in experiment [1]; under 10 µM in experiment [2].

`Cc1ccc(F)c(C(=O)NC(C=O)Cc2ccccc2)c1Cl` (stereo not shown) [Compound 42, 2-CHLORO-6-FLUORO-3-METHYL-N-(1-OXO-3-PHENYLPROPAN-2-YL)BENZAMIDE]: the IC50 on Human Calpain 1/NS1 is under 3000 nM; at Human Calpain 2/NS1, under 3000 nM; on Human Calpain 9/NS1, under 3000 nM; in experiment [1], 10 to 25 µM; in experiment [2] it was under 10 µM.

Turning to `COc1ccc(F)c(C(=O)NC(C=O)Cc2ccccc2)c1Cl` (stereo not shown) [Compound 43, 2-CHLORO-6-FLUORO-3-METHOXY-N-(1-OXO-3-PHENYLPROPAN-2-YL)BENZAMIDE], the IC50 is under 3000 nM on Human Calpain 1/NS1; under 3000 nM at Human Calpain 2/NS1; under 3000 nM at Human Calpain 9/NS1; 10 to 25 µM in experiment [1]; under 10 µM in experiment [2].

For `COc1ccc(Cl)cc1C(=O)NC(C=O)Cc1ccccc1` (stereo not shown) [Compound 37, 5-CHLORO-2-METHOXY-N-(1-OXO-3-PHENYLPROPAN-2-YL)BENZAMIDE], the IC50 is 3000 to 10000 nM at Human Calpain 1/NS1; under 3000 nM at Human Calpain 2/NS1; over 10000 nM on Human Calpain 9/NS1; over 25 µM in experiment [1]; over 25 µM in experiment [2].

Consider `O=CC(Cc1ccccc1)NC(=O)c1c(F)cccc1C(F)(F)F` (stereo not shown) [Compound 39, 2-FLUORO-N-(1-OXO-3-PHENYLPROPAN-2-YL)-6-(TRIFLUOROMETHYL)BENZAMIDE], for which the IC50 on Human Calpain 1/NS1 was under 3000 nM; on Human Calpain 2/NS1 it was under 3000 nM; at Human Calpain 9/NS1, under 3000 nM; in experiment [1] it was over 25 µM; in experiment [2], 10 to 25 µM.

`NC(=O)C(=O)[C@H](Cc1ccccc1)NC(=O)c1cc(Br)ccc1Cl` [Compound 34, (S)—N-(4-AMINO-3,4-DIOXO-1-PHENYLBUTAN-2-YL)-5-BROMO-2-CHLOROBENZAMIDE]: the IC50 at Human Calpain 1/NS1 is under 3000 nM; at Human Calpain 2/NS1, under 3000 nM; on Human Calpain 9/NS1, under 3000 nM; in experiment [1], under 10 µM; in experiment [2], under 10 µM.

`NC(=O)C(=O)[C@H](Cc1ccccc1)NC(=O)c1c(F)cccc1F` [Compound 15, (S)—N-(4-AMINO-3,4-DIOXO-1-PHENYLBUTAN-2-YL)-2,6-DIFLUOROBENZAMIDE]: the IC50 on Human Calpain 1/NS1 is under 3000 nM; at Human Calpain 2/NS1 it was under 3000 nM; at Human Calpain 9/NS1 it was under 3000 nM; in experiment [1] it was 10 to 25 µM; in experiment [2], 10 to 25 µM.

Regarding `O=CC(Cc1ccccc1)NC(=O)c1c(Cl)ccc2ccccc12` (stereo not shown) [Compound 44, 2-CHLORO-N-(1-OXO-3-PHENYLPROPAN-2-YL)-1-NAPHTHAMIDE], the IC50 on Human Calpain 1/NS1 is under 3000 nM; at Human Calpain 2/NS1 it was under 3000 nM; on Human Calpain 9/NS1 it was under 3000 nM; in experiment [1] it was under 10 µM; in experiment [2], under 10 µM.

In the case of `NC(=O)C(=O)C(Cc1ccccc1)NC(=O)c1cccc2c1Oc1ccccc1O2` (stereo not shown) [Compound 7, N-(4-AMINO-3,4-DIOXO-1-PHENYLBUTAN-2-YL)DIBENZO[b,e][1,4]DIOXINE-1-CARBOXAMIDE], the IC50 at Human Calpain 1/NS1 was under 3000 nM; at Human Calpain 2/NS1, under 3000 nM; at Human Calpain 9/NS1 it was under 3000 nM; in experiment [1], 10 to 25 µM; in experiment [2], over 25 µM.
